In patent US20110015069A1, “Herbicidal Compositions Comprising Pyroxasulfone IV” (BASF SE, priority 2008, published 2011):
Where two headings read alike, the source gives them in different places.

How the values were obtained:
[1] = test system: Bromus inermis (BROIN); test: greenhouse pre-emergence herbicidal activity; format: in vivo; conditions: read-out: observed % activity; for inhibition at 47 g/ha: metazachlor 47 g ai/ha; for inhibition at 12.5 g/ha: pyroxasulfone 12.5 g ai/ha; for inhibition at 25 g/ha: pyroxasulfone 25 g ai/ha
Text: (§1) For the pre-emergence treatment, directly after sowing the active compounds, which had been suspended or emulsified in water, were applied by means of finely distributed nozzles. The containers were irrigated gently to promote germination and growth and subsequently covered with transparent plastic hoods until plant had rooted. This cover caused uniform germination of the tests plants, unless this was adversely affected by active compounds.
(§2) The respective herbicides A and/or safener were formulated as 10% by weight strength emulsion concentrate and introduced to the spray liquor with the amount of solvent system used for applying the active compound. In the examples, the solvent used was water. Herbicide B and/or safener were used as commercially available formulations and introduced to the spray liquor with the amount of solvent system used for applying the active compound. In the examples, the solvent used was water.
(§3) Metazachlor was used as a commercial aqueous suspension concentrate having an active ingredient concentration of 500 g/l.
(§4) The test period extended over 21 days. During this time, the plants were tended, and their response to the treatments with active compound was evaluated.
(§5) The evaluation for the damage caused by the chemical compositions was carried out using a scale from 0 to 100%, compared to the untreated control plants. Here, 0 means no damage and 100 means complete destruction of the plants.
(§6) The value E, which is to be expected if the activity of the individual compounds is just additive, was calculated using the method of S. R. Colby (1967) “Calculating synergistic and antagonistic responses of herbicide combinations”, Weeds 15, p. 22 ff.
(§7) where X=effect in percent using herbicide A at an application rate a; • Y=effect in percent using herbicide B at an application rate b; • E=expected effect (in %) of A+B at application rates a+b.
(§8) If the value observed in this manner is higher than the value E calculated according to Colby, a synergistic effect is present.

[2] = test system: Capsella bursa-pastoris (CAPBP); test: greenhouse pre-emergence herbicidal activity; format: in vivo; conditions: read-out: observed % activity; for inhibition at 47 g/ha: metazachlor 47 g ai/ha; for inhibition at 94 g/ha: metazachlor 94 g ai/ha; for inhibition at 6.25 g/ha: pyroxasulfone 6.25 g ai/ha; for inhibition at 25 g/ha: pyroxasulfone 25 g ai/ha; for inhibition at 50 g/ha: pyroxasulfone 50 g ai/ha
Text: as §1, §2, §3, §4, §5, §6, §7, §8

[3] = test system: Galium aparine (GALAP); test: greenhouse pre-emergence herbicidal activity; format: in vivo; conditions: read-out: observed % activity; for inhibition at 47 g/ha: metazachlor 47 g ai/ha; for inhibition at 50 g/ha: pyroxasulfone 50 g ai/ha
Text: as §1, §2, §3, §4, §5, §6, §7, §8

[4] = test system: Matricaria inermis (MATIN); test: greenhouse pre-emergence herbicidal activity; format: in vivo; conditions: read-out: observed % activity; for inhibition at 47 g/ha: metazachlor 47 g ai/ha; for inhibition at 6.25 g/ha: pyroxasulfone 6.25 g ai/ha; for inhibition at 25 g/ha: pyroxasulfone 25 g ai/ha
Text: as §1, §2, §3, §4, §5, §6, §7, §8

[5] = test system: Thlaspi arvense (THLAR); test: greenhouse pre-emergence herbicidal activity; format: in vivo; conditions: read-out: observed % activity; for inhibition at 47 g/ha: metazachlor 47 g ai/ha; for inhibition at 94 g/ha: metazachlor 94 g ai/ha; for inhibition at 187 g/ha: metazachlor 187 g ai/ha; for inhibition at 6.25 g/ha: pyroxasulfone 6.25 g ai/ha; for inhibition at 12.5 g/ha: pyroxasulfone 12.5 g ai/ha; for inhibition at 25 g/ha: pyroxasulfone 25 g ai/ha; for inhibition at 50 g/ha: pyroxasulfone 50 g ai/ha
Text: as §1, §2, §3, §4, §5, §6, §7, §8

[6] = test system: Capsella bursa-pastoris (CAPBP); test: greenhouse post-emergence herbicidal activity; format: in vivo; conditions: 20 DAT
Text: (§9) For the post-emergence treatment, the test plants were first grown to a height of 3 to 20 cm, depending on the plant habit, and only then treated. Here, the herbicidal compositions were suspended or emulsified in water as distribution medium and sprayed using finely distributing nozzles.
as §2, §3, §4, §5, §6, §7, §8

[7] = test system: Matricaria inermis (MATIN); test: greenhouse post-emergence herbicidal activity; format: in vivo; conditions: 20 DAT
Text: as §9, §2, §3, §4, §5, §6, §7, §8

[8] = test system: Veronica persica (VERPE); test: greenhouse post-emergence herbicidal activity; format: in vivo; conditions: 20 DAT
Text: as §9, §2, §3, §4, §5, §6, §7, §8

[9] = test system: Viola arvensis (VIOAR); test: greenhouse post-emergence herbicidal activity; format: in vivo; conditions: for inhibition at 94 g/ha / inhibition at 25 g/ha / inhibition at 100 g/ha: Viola arvensis, read-out: observed % activity; for observed activity in % destruction 20 days after treatment: 20 DAT (Table 3)
Text: as §9, §2, §3, §4, §5, §6, §7, §8

[10] = known from Y. Yamaji et al., 2006; cited from earlier work

## Cc1cccc(C)c1N(Cn1cccn1)C(=O)CCl [metazachlor]
[1]; 192 h, 8 DAT
  inhibition at 47 g/ha: 35%
[1]; 480 h, 20 DAT
  inhibition at 47 g/ha: 30%
[2]; 192 h, 8 DAT
  inhibition at 47 g/ha: 40%
  inhibition at 94 g/ha: 40%
[2]; 480 h, 20 DAT
  inhibition at 47 g/ha: 70%
  inhibition at 94 g/ha: 80%
[3]; 192 h, 8 DAT
  inhibition at 47 g/ha: 30%
[3]; 480 h, 20 DAT
  inhibition at 47 g/ha: 35%
[4]; 192 h, 8 DAT
  inhibition at 47 g/ha: 20%
[4]; 480 h, 20 DAT
  inhibition at 47 g/ha: 35%
[5]; 192 h, 8 DAT
  inhibition at 47 g/ha: 20%
  inhibition at 94 g/ha: 30%
  inhibition at 187 g/ha: 45%
[5]; 480 h, 20 DAT
  inhibition at 47 g/ha: 0%
  inhibition at 94 g/ha: 0%
  inhibition at 187 g/ha: 30%
[6]; metazachlor 94 g ai/ha
  observed activity in % destruction 20 days after treatment: 45%
[7]; metazachlor 187 g ai/ha
  observed activity in % destruction 20 days after treatment: 60%
[7]; metazachlor 750 g ai/ha
  observed activity in % destruction 20 days after treatment: 80%
[8]; metazachlor 94 g ai/ha
  observed activity in % destruction 20 days after treatment: 60%
[8]; metazachlor 187 g ai/ha
  observed activity in % destruction 20 days after treatment: 80%
[9]; 168 h, metazachlor 94 g ai/ha, 7 DAT
  inhibition at 94 g/ha: 30%
[9]; 480 h, metazachlor 94 g ai/ha, 20 DAT
  inhibition at 94 g/ha: 0%
[9]; metazachlor 94 g ai/ha
  observed activity in % destruction 20 days after treatment: 0%

## Cn1nc(C(F)(F)F)c(CS(=O)(=O)C2=NOC(C)(C)C2)c1OC(F)F [pyroxasulfone, 3-[5-(difluoromethoxy)-1-methyl-3-(trifluoromethyl)pyrazol-4-ylmethylsulfonyl]-4,5-dihydro-5,5-dimethyl-1,2-oxazole]
[1]; 192 h, 8 DAT
  inhibition at 12.5 g/ha: 50%
  inhibition at 25 g/ha: 50%
[1]; 480 h, 20 DAT
  inhibition at 12.5 g/ha: 50%
  inhibition at 25 g/ha: 60%
[2]; 192 h, 8 DAT
  inhibition at 6.25 g/ha: 40%
  inhibition at 25 g/ha: 60%
  inhibition at 50 g/ha: 60%
[2]; 480 h, 20 DAT
  inhibition at 6.25 g/ha: 40%
  inhibition at 25 g/ha: 95%
  inhibition at 50 g/ha: 95%
[3]; 192 h, 8 DAT
  inhibition at 50 g/ha: 60%
[3]; 480 h, 20 DAT
  inhibition at 50 g/ha: 80%
[4]; 192 h, 8 DAT
  inhibition at 6.25 g/ha: 0%
  inhibition at 25 g/ha: 20%
[4]; 480 h, 20 DAT
  inhibition at 6.25 g/ha: 20%
  inhibition at 25 g/ha: 50%
[5]; 192 h, 8 DAT
  inhibition at 6.25 g/ha: 30%
  inhibition at 12.5 g/ha: 40%
  inhibition at 25 g/ha: 60%
  inhibition at 50 g/ha: 60%
[5]; 480 h, 20 DAT
  inhibition at 6.25 g/ha: 20%
  inhibition at 12.5 g/ha: 30%
  inhibition at 25 g/ha: 80%
  inhibition at 50 g/ha: 80%
[6]; pyroxasulfone 25 g ai/ha
  observed activity in % destruction 20 days after treatment: 35%
[7]; pyroxasulfone 25 g ai/ha
  observed activity in % destruction 20 days after treatment: 0%
[7]; pyroxasulfone 50 g ai/ha
  observed activity in % destruction 20 days after treatment: 0%
[7]; pyroxasulfone 100 g ai/ha
  observed activity in % destruction 20 days after treatment: 20%
[8]; pyroxasulfone 100 g ai/ha
  observed activity in % destruction 20 days after treatment: 90%
[9]; 168 h, pyroxasulfone 25 g ai/ha, 7 DAT
  inhibition at 25 g/ha: 0%
[9]; 168 h, pyroxasulfone 100 g ai/ha, 7 DAT
  inhibition at 100 g/ha: 50%
[9]; 480 h, pyroxasulfone 25 g ai/ha, 20 DAT
  inhibition at 25 g/ha: 0%
[9]; 480 h, pyroxasulfone 100 g ai/ha, 20 DAT
  inhibition at 100 g/ha: 65%
[9]; pyroxasulfone 25 g ai/ha
  observed activity in % destruction 20 days after treatment: 0%
[9]; pyroxasulfone 100 g ai/ha
  observed activity in % destruction 20 days after treatment: 65%
[10]
  post-emergence activity: poor
